Results: PubChem BioAssay (NCI)
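Assay format: 96-well plates, 48-hour exposure. The concentration for full growth arrest is given as TGI.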

Experiments:
Assay in all cases: inhibition of tumour cell growth, NCI panel, 48 h
M19-MEL melanoma = system: M19-MEL melanoma
OVCAR-3 ovarian = system: OVCAR-3 ovarian
A498 renal = system: A498 renal
COLO 205 colon = system: COLO 205 colon
OVCAR-5 ovarian = system: OVCAR-5 ovarian
OVCAR-8 ovarian = system: OVCAR-8 ovarian
HL-60(TB) leukemia = system: HL-60(TB) leukemia
786-0 renal = system: 786-0 renal
NCI-H23 lung = system: NCI-H23 lung
MOLT-4 leukemia = system: MOLT-4 leukemia
K-562 leukemia = system: K-562 leukemia
CCRF-CEM leukemia = system: CCRF-CEM leukemia
SK-OV-3 ovarian = system: SK-OV-3 ovarian
IGROV1 ovarian = system: IGROV1 ovarian
U251 CNS = system: U251 CNS
SN12C renal = system: SN12C renal
UACC-62 melanoma = system: UACC-62 melanoma
HCT-15 colon = system: HCT-15 colon
SK-MEL-5 melanoma = system: SK-MEL-5 melanoma
LXFL 529 NSCLC = system: LXFL 529 NSCLC
KM20L2 colon = system: KM20L2 colon
CAKI-1 renal = system: CAKI-1 renal
DMS 273 small cell lung = system: DMS 273 small cell lung
SK-MEL-2 melanoma = system: SK-MEL-2 melanoma
SW-620 colon = system: SW-620 colon
SNB-75 CNS = system: SNB-75 CNS
DLD-1 colon = system: DLD-1 colon
HCT-116 colon = system: HCT-116 colon
OVCAR-4 ovarian = system: OVCAR-4 ovarian
SNB-78 CNS = system: SNB-78 CNS
DMS 114 small cell lung = system: DMS 114 small cell lung
KM12 colon = system: KM12 colon
NCI-H460 lung = system: NCI-H460 lung
NCI-H226 lung = system: NCI-H226 lung
M14 melanoma = system: M14 melanoma
HOP-18 NSCLC = system: HOP-18 NSCLC
RXF-631 renal = system: RXF-631 renal
SNB-19 CNS = system: SNB-19 CNS
UO-31 renal = system: UO-31 renal
HCC-2998 colon = system: HCC-2998 colon
SK-MEL-28 melanoma = system: SK-MEL-28 melanoma
HT29 colon = system: HT29 colon
EKVX NSCLC = system: EKVX NSCLC
SF-295 CNS = system: SF-295 CNS
HOP-92 NSCLC = system: HOP-92 NSCLC
SF-268 CNS = system: SF-268 CNS
UACC-257 melanoma = system: UACC-257 melanoma
A549 NSCLC = system: A549 NSCLC
LOX IMVI melanoma = system: LOX IMVI melanoma
TK-10 renal = system: TK-10 renal
SF-539 CNS = system: SF-539 CNS
MALME-3M melanoma = system: MALME-3M melanoma
ACHN renal = system: ACHN renal
HOP-62 NSCLC = system: HOP-62 NSCLC
NCI-H522 lung = system: NCI-H522 lung
RXF 393 renal = system: RXF 393 renal
SR leukemia = system: SR leukemia
RPMI-8226 leukemia = system: RPMI-8226 leukemia
XF 498 CNS = system: XF 498 CNS

Measured: TGI

O=C(Cc1nc2ccccc2c(=O)n1-c1ccccc1Cl)c1ccncc1
71.7 µM: SNB-75 CNS
> 100 µM: M19-MEL melanoma | OVCAR-3 ovarian | A498 renal | COLO 205 colon | OVCAR-5 ovarian | OVCAR-8 ovarian | HL-60(TB) leukemia | 786-0 renal | NCI-H23 lung | MOLT-4 leukemia | K-562 leukemia | CCRF-CEM leukemia | SK-OV-3 ovarian | IGROV1 ovarian | U251 CNS | SN12C renal | UACC-62 melanoma | HCT-15 colon | SK-MEL-5 melanoma | LXFL 529 NSCLC | KM20L2 colon | CAKI-1 renal | DMS 273 small cell lung | SK-MEL-2 melanoma | SW-620 colon | DLD-1 colon | HCT-116 colon | OVCAR-4 ovarian | SNB-78 CNS | DMS 114 small cell lung | KM12 colon | NCI-H460 lung | NCI-H226 lung | M14 melanoma | HOP-18 NSCLC | RXF-631 renal | SNB-19 CNS | UO-31 renal | HCC-2998 colon | SK-MEL-28 melanoma | HT29 colon | EKVX NSCLC | SF-295 CNS | HOP-92 NSCLC | SF-268 CNS | UACC-257 melanoma | A549 NSCLC | LOX IMVI melanoma | TK-10 renal | SF-539 CNS | MALME-3M melanoma | ACHN renal | HOP-62 NSCLC | NCI-H522 lung | RXF 393 renal

COc1ccc(C(c2c(O)c3ccccc3n(-c3ccccc3)c2=O)c2c(O)c3ccccc3n(-c3ccccc3)c2=O)cc1
> 100 µM: M19-MEL melanoma | OVCAR-3 ovarian | COLO 205 colon | SR leukemia | OVCAR-5 ovarian | 786-0 renal | NCI-H23 lung | MOLT-4 leukemia | K-562 leukemia | CCRF-CEM leukemia | U251 CNS | SN12C renal | HCT-15 colon | SK-MEL-5 melanoma | LXFL 529 NSCLC | KM20L2 colon | CAKI-1 renal | DMS 273 small cell lung | SK-MEL-2 melanoma | RPMI-8226 leukemia | SW-620 colon | DLD-1 colon | HCT-116 colon | OVCAR-4 ovarian | SNB-78 CNS | DMS 114 small cell lung | XF 498 CNS | KM12 colon | NCI-H226 lung | HOP-18 NSCLC | SNB-19 CNS | UO-31 renal | HCC-2998 colon | SK-MEL-28 melanoma | EKVX NSCLC | HOP-92 NSCLC | SF-268 CNS | A549 NSCLC | LOX IMVI melanoma | TK-10 renal | SF-539 CNS | MALME-3M melanoma | ACHN renal | HOP-62 NSCLC | NCI-H522 lung | RXF 393 renal

C=C1C(=O)OC2C/C(C)=C/CC/C(C)=C/CCC3(COC(C)=O)OC3CC12 (centres undefined)
5.85 µM: HL-60(TB) leukemia
32.2 µM: A549 NSCLC
38.6 µM: EKVX NSCLC
26.7 µM: SK-OV-3 ovarian
23.3 µM: U251 CNS | HOP-18 NSCLC
2.9 µM: NCI-H522 lung
31.9 µM: IGROV1 ovarian
3.87 µM: HCT-116 colon
14.4 µM: SK-MEL-2 melanoma | DLD-1 colon
19.5 µM: XF 498 CNS | TK-10 renal
26.4 µM: M19-MEL melanoma
20.9 µM: DMS 273 small cell lung
21.5 µM: HCC-2998 colon
23 µM: LOX IMVI melanoma
29.3 µM: SF-295 CNS
34.1 µM: SN12C renal
27.5 µM: ACHN renal
8.1 µM: LXFL 529 NSCLC
10.7 µM: HCT-15 colon
7.85 µM: SF-539 CNS
29.6 µM: UACC-257 melanoma
28.3 µM: SK-MEL-5 melanoma
8.49 µM: CCRF-CEM leukemia
25.5 µM: UO-31 renal
24.1 µM: HT29 colon
13 µM: RPMI-8226 leukemia
30.5 µM: OVCAR-5 ovarian
17.4 µM: 786-0 renal
14.6 µM: DMS 114 small cell lung
34.7 µM: HOP-62 NSCLC
18 µM: RXF 393 renal
19.2 µM: OVCAR-3 ovarian
27 µM: A498 renal
19.9 µM: KM20L2 colon
9.48 µM: CAKI-1 renal
31.4 µM: SNB-19 CNS
27.4 µM: UACC-62 melanoma
26.3 µM: MOLT-4 leukemia
5.09 µM: SW-620 colon
32.7 µM: K-562 leukemia
15.6 µM: COLO 205 colon
27.9 µM: KM12 colon
26 µM: NCI-H23 lung
18.5 µM: M14 melanoma
46.5 µM: OVCAR-4 ovarian
19.8 µM: OVCAR-8 ovarian
21.7 µM: SF-268 CNS
25.2 µM: NCI-H460 lung
23.1 µM: SK-MEL-28 melanoma
25.7 µM: MALME-3M melanoma
27.6 µM: SNB-75 CNS
30.3 µM: SNB-78 CNS

CCOC(=O)C1=C(Nc2ccc(Cl)cc2Cl)OCC1=O
> 100 µM: M19-MEL melanoma | OVCAR-3 ovarian | COLO 205 colon | SR leukemia | OVCAR-5 ovarian | OVCAR-8 ovarian | HL-60(TB) leukemia | 786-0 renal | NCI-H23 lung | MOLT-4 leukemia | K-562 leukemia | SK-OV-3 ovarian | IGROV1 ovarian | U251 CNS | SN12C renal | UACC-62 melanoma | HCT-15 colon | LXFL 529 NSCLC | KM20L2 colon | CAKI-1 renal | DMS 273 small cell lung | SK-MEL-2 melanoma | RPMI-8226 leukemia | SW-620 colon | SNB-75 CNS | DLD-1 colon | HCT-116 colon | OVCAR-4 ovarian | SNB-78 CNS | XF 498 CNS | KM12 colon | NCI-H460 lung | NCI-H226 lung | M14 melanoma | RXF-631 renal | SNB-19 CNS | UO-31 renal | HCC-2998 colon | SK-MEL-28 melanoma | HT29 colon | SF-295 CNS | HOP-92 NSCLC | SF-268 CNS | UACC-257 melanoma | A549 NSCLC | LOX IMVI melanoma | TK-10 renal | SF-539 CNS | MALME-3M melanoma | ACHN renal | HOP-62 NSCLC | NCI-H522 lung
